From patent publication US12729377B2, “RNAi agents and compositions for inhibiting expression of angiopoietin-like 3 (ANGPTL3), and methods of use” (Arrowhead Pharmaceuticals, Inc., priority 2017, dated 2026)

Tests used:
ANGPTL3 protein [1] = assay: Example 7: serum ANGPTL3 protein by ELISA in mice; assay type: in vivo, C57bl/6 mice; design: key: ratio: (level/pre-treatment day -1 level) ÷ mean of D5W control group
Protocol: (§1) To further assess the in vivo activity of additional ANGPTL3 RNAi agents that are designed to target position 304 on the ANGPTL3 gene, six- to eight-week-old female C57bl/6 mice were used. Pre-dose serum samples were taken at day −1 after a four hour fast. At day 1, each mouse was given a single subcutaneous administration of 200 μl containing 0.5 mg/kg (mpk) of an ANGPTL3 RNAi agent in D5W (dextrose in 5% water), or control (D5W) with no RNAi agent, according to the dosing groups recited in Table 31.
(§2) Each of the RNAi agents included a modified sequence and an N-acetyl-galactosamine-containing targeting ligand conjugated to the 5′ terminal end of the sense strand. (See Tables 3, 4, and 5 for modified sequences and targeting ligand structures). The injections were performed between the skin and muscle (i.e. subcutaneous injections) into the loose skin over the neck and shoulder area. Three (3) mice in each group were tested (n=3). Serum was collected on days 8, 15, 22, and 29. Mice were fasted for four hours prior to each collection. ANGPTL3 protein levels in serum were measured by ELISA assay (R&D Systems), according to the manufacturer's recommendations. Triglycerides, total cholesterol, high-density lipoprotein (HDL), and low-density lipoprotein (LDL) in serum were measured on a Cobas® Integra 400 (Roche Diagnostics), according to the manufacturer's recommendations.
(§3) The ANGPTL3 protein levels, triglyceride levels, total cholesterol levels, HDL levels, and LDL levels for each animal were normalized. For normalization, the level of ANGPTL3 protein, triglyceride, HDL, and total cholesterol, respectively, for each animal at a time point, was divided by the pre-treatment level of expression in that animal (in this case at day −1) to determine the ratio of expression “normalized to pre-treatment.” Expression at a specific time point was then normalized to the D5W control group by dividing the “normalized to pre-treatment” ratio for an individual animal by the mean “normalized to pretreatment” ratio of all mice in the D5W control group.

ANGPTL3 gene [2] = assay: Example 7: serum triglycerides in mice; assay type: in vivo, C57bl/6 mice; design: key: ratio: (level/pre-treatment day -1 level) ÷ mean of D5W control group
Protocol: as §1, §2, §3

ANGPTL3 gene [3] = assay: Example 7: serum total cholesterol in mice; assay type: in vivo, C57bl/6 mice; design: key: ratio: (level/pre-treatment day -1 level) ÷ mean of D5W control group
Protocol: as §1, §2, §3

ANGPTL3 gene [4] = assay: Example 7: serum HDL in mice; assay type: in vivo; design: key: ratio: (level/pre-treatment day -1 level) ÷ mean of D5W control group; conditions: 0.5 mg/kg single SC injection day 1, female C57bl/6 mice, n=3, ratio to D5W control
Protocol: as §1, §2, §3

ANGPTL3 gene [5] = assay: Example 7: serum LDL in mice; assay type: in vivo; design: key: ratio: (level/pre-treatment day -1 level) ÷ mean of D5W control group; conditions: 0.5 mg/kg single SC injection day 1, female C57bl/6 mice, n=3, ratio to D5W control
Protocol: as §1, §2, §3

ANGPTL3 protein [6] = assay: Example 9: serum ANGPTL3 protein by ELISA in cynomolgus monkeys; assay type: in vivo, cynomolgus macaque (Macaca fascicularis); conditions: for Average ANGPTL3 Protein Normalized to Pre-Treatment: 2.0 mg/kg single SC injection day 1, cynos, n=3
Protocol: (§4) Additional ANGPTL3 RNAi agents were evaluated in cynomolgus monkeys. On day 1, cynomolgus macaque (Macaca fascicularis) primates (also referred to herein as “cynos”) were administered a single subcutaneous injection of 0.3 mL/kg (approximately 2-3 mL volume, depending on animal mass) containing 2.0 mg/kg of an ANGPTL3 RNAi agent, which included either AD05488, AD05743, AD05775, or AD05841, each formulated in saline. […] ANGPTL3 RNAi agents AD05488, AD05743, and AD05775 included nucleotide sequences designed to target position 304 of the ANGPTL3 gene. ANGPTL3 RNAi agent AD05841 included nucleotide sequences designed to target position 1035 of the ANGPTL3 gene.
(§5) Three (3) cynos in each group were tested (n=3). Blood samples were drawn and serum samples were analyzed on days −14 (predose), −7 (predose), 1 (pre-dose), 8, 15, 22, 29, and 35. Cynos were fasted overnight prior to each collection. ANGPTL3 protein levels in serum were measured by ELISA assay (R&D Systems), according to the manufacturer's recommendations. Triglycerides, total cholesterol, high-density lipoprotein (HDL), and low-density lipoprotein (LDL) in serum were measured on a Cobas® Integra 400 (Roche Diagnostics), according to the manufacturer's recommendations.
(§6) The ANGPTL3 protein levels, triglyceride levels, total cholesterol levels, HDL levels, and LDL levels for each animal were normalized. For normalization, the level of ANGPTL3 protein, triglyceride, HDL, and total cholesterol, respectively, for each animal at a time point, was divided by the average pre-treatment level of expression in that animal (in this case at days −14, −7, and 1) to determine the ratio of expression “normalized to pre-treatment.”

ANGPTL3 gene [7] = assay: Example 9: serum triglycerides in cynomolgus monkeys; assay type: in vivo, cynomolgus macaque (Macaca fascicularis); conditions: 2.0 mg/kg single SC injection day 1, cynos, n=3
Protocol: as §4, §5, §6

ANGPTL3 gene [8] = assay: Example 9: serum total cholesterol in cynomolgus monkeys; assay type: in vivo, cynomolgus macaque (Macaca fascicularis); conditions: 2.0 mg/kg single SC injection day 1, cynos, n=3
Protocol: as §4, §5, §6

ANGPTL3 gene [9] = assay: Example 9: serum HDL in cynomolgus monkeys; assay type: in vivo, cynomolgus macaque (Macaca fascicularis); conditions: 2.0 mg/kg single SC injection day 1, cynos, n=3
Protocol: as §4, §5, §6

ANGPTL3 gene [10] = assay: Example 9: serum LDL in cynomolgus monkeys; assay type: in vivo, cynomolgus macaque (Macaca fascicularis); conditions: 2.0 mg/kg single SC injection day 1, cynos, n=3
Protocol: as §4, §5, §6

[11] = Day 8, 0.5 mg/kg single SC injection on day 1, n=3
[12] = Day 15, 0.5 mg/kg single SC injection on day 1, n=3
[13] = Day 22, 0.5 mg/kg single SC injection on day 1, n=3
[14] = Day 29, 0.5 mg/kg single SC injection on day 1, n=3

AD05775: RNAi agent duplex: antisense AM07235-AS, sense AM07608-SS (antisense UACUGAUCAAAUAUGUUGAGC; sense GCUCAACAUNUUUGAUCAGUA; (NAG37)s GalNAc ligand; RNAi agent antisense strand modified sequence; RNAi agent sense strand modified sequence; modified_base 10 n = 2′-O-methyl-2-aminoadenosine-3′-phosphate)
Avg ANGPTL3, normalized to pre-treatment and control (ANGPTL3 protein [1]; [11]): 0.247
Avg ANGPTL3, normalized to pre-treatment and control (ANGPTL3 protein [1]; [12]): 0.232
Avg ANGPTL3, normalized to pre-treatment and control (ANGPTL3 protein [1]; [13]): 0.218
Avg ANGPTL3, normalized to pre-treatment and control (ANGPTL3 protein [1]; [14]): 0.300
Avg TG, normalized to pre-treatment and control (ANGPTL3 gene [2]; [11]): 0.837
Avg TG, normalized to pre-treatment and control (ANGPTL3 gene [2]; [12]): 0.610
Avg TG, normalized to pre-treatment and control (ANGPTL3 gene [2]; [13]): 0.819
Avg TG, normalized to pre-treatment and control (ANGPTL3 gene [2]; [14]): 0.885
Avg Total Chol, normalized to pre-treatment and control (ANGPTL3 gene [3]; [11]): 0.794
Avg Total Chol, normalized to pre-treatment and control (ANGPTL3 gene [3]; [12]): 0.777
Avg Total Chol, normalized to pre-treatment and control (ANGPTL3 gene [3]; [13]): 0.812
Avg Total Chol, normalized to pre-treatment and control (ANGPTL3 gene [3]; [14]): 1.108
Avg HDL, normalized to pre-treatment and control (ANGPTL3 gene [4]; Day 8): 0.754
Avg HDL, normalized to pre-treatment and control (ANGPTL3 gene [4]; Day 15): 0.757
Avg HDL, normalized to pre-treatment and control (ANGPTL3 gene [4]; Day 22): 0.736
Avg HDL, normalized to pre-treatment and control (ANGPTL3 gene [4]; Day 29): 1.069
Avg LDL, normalized to pre-treatment and control (ANGPTL3 gene [5]; Day 8): 0.975
Avg LDL, normalized to pre-treatment and control (ANGPTL3 gene [5]; Day 15): 0.918
Avg LDL, normalized to pre-treatment and control (ANGPTL3 gene [5]; Day 22): 1.095
Avg LDL, normalized to pre-treatment and control (ANGPTL3 gene [5]; Day 29): 1.534
Average ANGPTL3 Protein Normalized to Pre-Treatment (ANGPTL3 protein [6]; Day 8): 0.463
Average ANGPTL3 Protein Normalized to Pre-Treatment (ANGPTL3 protein [6]; Day 15): 0.352
Average ANGPTL3 Protein Normalized to Pre-Treatment (ANGPTL3 protein [6]; Day 22): 0.330
Average ANGPTL3 Protein Normalized to Pre-Treatment (ANGPTL3 protein [6]; Day 29): 0.365
Average ANGPTL3 Protein Normalized to Pre-Treatment (ANGPTL3 protein [6]; Day 35): 0.379
reduction in ANGPTL3 protein compared to pre-treatment (ANGPTL3 protein [6]; each of the measured time points, single 2.0 mg/kg subcutaneous, cynomolgus monkeys): reduction
Average Triglycerides Normalized to Pre-Treatment (ANGPTL3 gene [7]; Day 8): 0.466
Average Triglycerides Normalized to Pre-Treatment (ANGPTL3 gene [7]; Day 15): 0.427
Average Triglycerides Normalized to Pre-Treatment (ANGPTL3 gene [7]; Day 22): 0.552
Average Triglycerides Normalized to Pre-Treatment (ANGPTL3 gene [7]; Day 29): 0.391
Average Triglycerides Normalized to Pre-Treatment (ANGPTL3 gene [7]; Day 35): 0.431
Average Total Cholesterol Normalized to Pre-Treatment (ANGPTL3 gene [8]; Day 8): 0.965
Average Total Cholesterol Normalized to Pre-Treatment (ANGPTL3 gene [8]; Day 15): 0.811
Average Total Cholesterol Normalized to Pre-Treatment (ANGPTL3 gene [8]; Day 22): 0.811
Average Total Cholesterol Normalized to Pre-Treatment (ANGPTL3 gene [8]; Day 29): 0.813
Average Total Cholesterol Normalized to Pre-Treatment (ANGPTL3 gene [8]; Day 35): 0.770
Average HDL Normalized to Pre-Treatment (ANGPTL3 gene [9]; Day 8): 0.904
Average HDL Normalized to Pre-Treatment (ANGPTL3 gene [9]; Day 15): 0.871
Average HDL Normalized to Pre-Treatment (ANGPTL3 gene [9]; Day 22): 0.737
Average HDL Normalized to Pre-Treatment (ANGPTL3 gene [9]; Day 29): 0.781
Average HDL Normalized to Pre-Treatment (ANGPTL3 gene [9]; Day 35): 0.723
Average LDL Normalized to Pre-Treatment (ANGPTL3 gene [10]; Day 8): 1.134
Average LDL Normalized to Pre-Treatment (ANGPTL3 gene [10]; Day 15): 0.909
Average LDL Normalized to Pre-Treatment (ANGPTL3 gene [10]; Day 22): 1.089
Average LDL Normalized to Pre-Treatment (ANGPTL3 gene [10]; Day 29): 1.034
Average LDL Normalized to Pre-Treatment (ANGPTL3 gene [10]; Day 35): 1.008
